Consider 12 compounds from patent publication US20250195536A1, “BICYCLOOCTANE KRAS INHIBITORS” (Incyte Corporation, priority 2023, published 2025).

Some results are limits rather than exact numbers.

The target in one series is KRAS G12D (Homo sapiens, UniProt P01116, G12D). The series is described as follows: GDP-GTP exchange assay (KRAS G12D).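 Note: one dagger IC50 up to 100 nM and two daggers above 100 nM up to 1 μM.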 The format is biochemical. The settings on record: bodipy-GDP/GppNHp exchange with SOS1; 4 h pre-incubation, 2 h reaction. In a few lines: (§1)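 IC50 came from a four-parameter fit of fluorescence loss (485/520 nm) as SOS1 (150 nM) swapped bodipy-GDP for GppNHp (500 μM) on 2.5 nM KRAS, final concentrations. Compounds were pre-incubated 4 h at r.t. (pH 7.5 Hepes, 10 mM MgCl2); exchange ran 2 h (G12D) or 3 h (G12V).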
KRAS G12D, sequence (P01116 1-188 isoform P01116-2 G12D): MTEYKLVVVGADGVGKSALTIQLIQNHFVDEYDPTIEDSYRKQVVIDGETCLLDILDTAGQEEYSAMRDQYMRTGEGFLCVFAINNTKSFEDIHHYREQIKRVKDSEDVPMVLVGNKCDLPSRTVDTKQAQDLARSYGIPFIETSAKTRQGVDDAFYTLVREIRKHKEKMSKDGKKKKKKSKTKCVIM

A short description of series [1]: Caco2 assay (permeability, Papp A-B). The format is in vitro ADME. The settings on record: human, Caco-2, absorptive direction (A-B), 50 μM test compound, 4% BSA in receiver. Put shortly:
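Absorptive (A-B) Papp: 50 μM test compound in HBSS added to apical side of 22-25-day Caco-2 monolayers (TEER 300 Ω·cm^2), receiver buffer containing 4% BSA. After 120 min at 37 °C, 5% CO2, both sides analysed by LCMS; Papp calculated from flux rate normalized to area and donor amount.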

Another series concerns the target KRAS G12V (Homo sapiens, UniProt P01116, G12V). The series is described as follows: GDP-GTP exchange assay (KRAS G12V).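 Note: one dagger IC50 up to 100 nM and two daggers above 100 nM up to 1 μM.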 It is filed as biochemical. The note with it: bodipy-GDP/GppNHp exchange with SOS1; 3 h incubation after GppNHp-SOS1. In a few lines: as §1

KRAS G12V, sequence (P01116 1-188 isoform P01116-2 G12V): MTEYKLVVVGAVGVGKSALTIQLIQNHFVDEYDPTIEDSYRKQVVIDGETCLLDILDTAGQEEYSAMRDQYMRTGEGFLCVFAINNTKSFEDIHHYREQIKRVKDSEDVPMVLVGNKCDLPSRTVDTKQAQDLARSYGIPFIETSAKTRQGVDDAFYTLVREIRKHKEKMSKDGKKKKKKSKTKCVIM

For `Cc1nc2c(F)c(-c3cccc(Cl)c3Cl)c(CCC#N)cc2c2c1cc([C@H]1[C@H]3C[C@H](CN(c4ccc(Cl)c(Cl)c4)C3)N1C(=O)C1CC1)n2[C@H]1[C@H]2CN[C@@H]1C2` (atropisomer, axis not shown; (Ra)) [Example 15, 3-((Ra)-1-((1R,4R,5S)-2-azabicyclo[2.1.1]hexan-5-yl)-2-((1S,5R,7R)-6-(cyclopropanecarbonyl)-3-(3,4-dichlorophenyl)-3,6-diazabicyclo[3.2.1]octan-7-yl)-7-(2,3-dichlorophenyl)-6-fluoro-4-methyl-1H-pyrrolo[3,2-c]quinolin-8-yl)propanenitrile], the “G12D_exchange (KRAS_G12D exchange assay IC50)” value (“G12D_exchange” below) at KRAS G12D is “†††”. The Papp A→B at 120 min, 50 μM in series [1] was at most 0.5 ×10⁻⁶ cm/s. Moreover, the “G12V_exchange (KRAS_G12V exchange assay IC50)” value (from here on “G12V_exchange”) at KRAS G12V is “††††”.
As for `Cc1nc2c(F)c(-c3cccc(Cl)c3Cl)c(CCC#N)cc2c2c1cc([C@H]1[C@H]3C[C@H](CN(c4cccc(C#N)c4)C3)N1C(=O)C1CC1)n2[C@H]1[C@H]2CN[C@@H]1C2` (atropisomer, axis not shown; (Ra)) [Example 17, 3-((1S,5R,7R)-7-((Ra)-1-((1R,4R,5S)-2-azabicyclo[2.1.1]hexan-5-yl)-8-(2-cyanoethyl)-7-(2,3-dichlorophenyl)-6-fluoro-4-methyl-1H-pyrrolo[3,2-c]quinolin-2-yl)-6-(cyclopropanecarbonyl)-3,6-diazabicyclo[3.2.1]octan-3-yl)benzonitrile], on KRAS G12D, the “G12D_exchange” value is “††”. This compound came in with a Papp A→B at 120 min, 50 μM in series [1] of at most 0.5 ×10⁻⁶ cm/s. Besides, the “G12V_exchange” value on KRAS G12V is reported as “†”.
The like results for `Cc1nc2c(F)c(-c3cccc(Cl)c3Cl)c(CCC#N)cc2c2c1cc([C@H]1[C@H]3C[C@H](CN(c4cccc(Cl)c4)C3)N1C(=O)C1CC1)n2[C@H]1[C@H]2CN[C@@H]1C2` (atropisomer, axis not shown; (Ra)) [Example 19, 3-((Ra)-1-((1R,4R,5S)-2-azabicyclo[2.1.1]hexan-5-yl)-2-((1S,5R,7R)-3-(3-chlorophenyl)-6-(cyclopropanecarbonyl)-3,6-diazabicyclo[3.2.1]octan-7-yl)-7-(2,3-dichlorophenyl)-6-fluoro-4-methyl-1H-pyrrolo[3,2-c]quinolin-8-yl)propanenitrile] were, in that order, “††”, at most 0.5 ×10⁻⁶ cm/s and “†”.
For `Cc1nc2c(F)c(-c3cccc(Cl)c3Cl)c(CCC#N)cc2c2c1cc([C@H]1[C@H]3C[C@H](CN(c4cccc(OC(F)(F)F)c4)C3)N1C(=O)C1CC1)n2[C@H]1[C@H]2CN[C@@H]1C2` (atropisomer, axis not shown; (Ra)) [Example 20, 3-((Ra)-1-((1R,4R,5S)-2-azabicyclo[2.1.1]hexan-5-yl)-2-((1S,5R,7R)-6-(cyclopropanecarbonyl)-3-(3-(trifluoromethoxy)phenyl)-3,6-diazabicyclo[3.2.1]octan-7-yl)-7-(2,3-dichlorophenyl)-6-fluoro-4-methyl-1H-pyrrolo[3,2-c]quinolin-8-yl)propanenitrile] the same measures were “††”, at most 0.5 ×10⁻⁶ cm/s and “†”.
For the compound `Cc1nc2c(F)c(-c3cccc(Cl)c3Cl)c(CCC#N)cc2c2c1cc([C@H]1[C@H]3C[C@H](CN(c4cncc(C(F)(F)F)c4)C3)N1C(=O)C1CC1)n2[C@H]1[C@H]2CN[C@@H]1C2` (atropisomer, axis not shown; (Ra)) [Example 21, 3-((Ra)-1-((1R,4R,5S)-2-azabicyclo[2.1.1]hexan-5-yl)-2-((1S,5R,7R)-6-(cyclopropanecarbonyl)-3-(5-(trifluoromethyl)pyridin-3-yl)-3,6-diazabicyclo[3.2.1]octan-7-yl)-7-(2,3-dichlorophenyl)-6-fluoro-4-methyl-1H-pyrrolo[3,2-c]quinolin-8-yl)propanenitrile], the “G12D_exchange” value on KRAS G12D was “†”. In addition, the Papp A→B at 120 min, 50 μM in series [1] was at most 0.5 ×10⁻⁶ cm/s. Further, the “G12V_exchange” value on KRAS G12V is “†”.
Turning to `Cc1nc2c(F)c(-c3cccc(Cl)c3Cl)c(CCC#N)cc2c2c1cc([C@H]1[C@H]3C[C@H](CN(c4ccc(C(F)F)nc4)C3)N1C(=O)C1CC1)n2[C@H]1[C@H]2CN[C@@H]1C2` (atropisomer, axis not shown; (Ra)) [Example 22, 3-((Ra)-1-((1R,4R,5S)-2-azabicyclo[2.1.1]hexan-5-yl)-2-((1S,5R,7R)-6-(cyclopropanecarbonyl)-3-(6-(difluoromethyl)pyridin-3-yl)-3,6-diazabicyclo[3.2.1]octan-7-yl)-7-(2,3-dichlorophenyl)-6-fluoro-4-methyl-1H-pyrrolo[3,2-c]quinolin-8-yl)propanenitrile], the “G12D_exchange” value at KRAS G12D is reported as “†”. Also, in series [1], the Papp A→B at 120 min, 50 μM was at most 0.5 ×10⁻⁶ cm/s. Further, on KRAS G12V, the “G12V_exchange” value is “†”.
Regarding `Cc1nc2c(F)c(-c3cccc(Cl)c3Cl)c(CCC#N)cc2c2c1cc([C@H]1[C@H]3C[C@H](CN(c4ccc(F)cc4)C3)N1C(=O)C1CC1)n2[C@H]1[C@H]2CN[C@@H]1C2` (atropisomer, axis not shown; (Ra)) [Example 23, 3-((Ra)-1-((1R,4R,5S)-2-azabicyclo[2.1.1]hexan-5-yl)-2-((1S,5R,7R)-6-(cyclopropanecarbonyl)-3-(4-fluorophenyl)-3,6-diazabicyclo[3.2.1]octan-7-yl)-7-(2,3-dichlorophenyl)-6-fluoro-4-methyl-1H-pyrrolo[3,2-c]quinolin-8-yl)propanenitrile], the “G12D_exchange” value at KRAS G12D is reported as “†”. Besides, in series [1], the Papp A→B at 120 min, 50 μM was at most 0.5 ×10⁻⁶ cm/s. Moreover, the “G12V_exchange” value on KRAS G12V is reported as “†”.
With `COc1ccc(N2C[C@@H]3C[C@H](C2)N(C(=O)C2CC2)[C@H]3c2cc3c(C)nc4c(F)c(-c5cccc(Cl)c5Cl)c(CCC#N)cc4c3n2[C@H]2[C@H]3CN[C@@H]2C3)cn1` (atropisomer, axis not shown; (Ra)) [Example 24, 3-((Ra)-1-((1R,4R,5S)-2-azabicyclo[2.1.1]hexan-5-yl)-2-((1S,5R,7R)-6-(cyclopropanecarbonyl)-3-(6-methoxypyridin-3-yl)-3,6-diazabicyclo[3.2.1]octan-7-yl)-7-(2,3-dichlorophenyl)-6-fluoro-4-methyl-1H-pyrrolo[3,2-c]quinolin-8-yl)propanenitrile], on KRAS G12D, the “G12D_exchange” value is given as “††”. In series [1], the apparent permeability from apical to basolateral (Papp A→B) at 120 min, 50 μM is at most 0.5 ×10⁻⁶ cm/s. Besides, at KRAS G12V, the “G12V_exchange” value is “†”.
Regarding `Cc1nc2c(F)c(-c3cccc(Cl)c3Cl)c(CCC#N)cc2c2c1cc([C@H]1[C@H]3C[C@H](CN(c4ccc(OC(F)F)cc4)C3)N1C(=O)C1CC1)n2[C@H]1[C@H]2CN[C@@H]1C2` (atropisomer, axis not shown; (Ra)) [Example 25, 3-((Ra)-1-((1R,4R,5S)-2-azabicyclo[2.1.1]hexan-5-yl)-2-((1S,5R,7R)-6-(cyclopropanecarbonyl)-3-(4-(difluoromethoxy)phenyl)-3,6-diazabicyclo[3.2.1]octan-7-yl)-7-(2,3-dichlorophenyl)-6-fluoro-4-methyl-1H-pyrrolo[3,2-c]quinolin-8-yl)propanenitrile], the “G12D_exchange” value on KRAS G12D was “††”. In series [1], this compound displayed a Papp A→B at 120 min, 50 μM of at most 0.5 ×10⁻⁶ cm/s. Further, the “G12V_exchange” value at KRAS G12V was “†”.
As to `Cc1nc2c(F)c(-c3cccc(Cl)c3Cl)c(CCC#N)cc2c2c1cc([C@H]1[C@H]3C[C@H](CN(c4cccc(OC(F)F)c4)C3)N1C(=O)C1CC1)n2[C@H]1[C@H]2CN[C@@H]1C2` (atropisomer, axis not shown; (Ra)) [Example 26, 3-((Ra)-1-((1R,4R,5S)-2-azabicyclo[2.1.1]hexan-5-yl)-2-((1S,5R,7R)-6-(cyclopropanecarbonyl)-3-(3-(difluoromethoxy)phenyl)-3,6-diazabicyclo[3.2.1]octan-7-yl)-7-(2,3-dichlorophenyl)-6-fluoro-4-methyl-1H-pyrrolo[3,2-c]quinolin-8-yl)propanenitrile], at KRAS G12D, the “G12D_exchange” value is on record as “††”. The compound further showed an apparent permeability from apical to basolateral (Papp A→B) at 120 min, 50 μM in series [1] of at most 0.5 ×10⁻⁶ cm/s. Moreover, on KRAS G12V, the “G12V_exchange” value is listed as “†”.
Turning to `Cc1nc2c(F)c(-c3cccc(Cl)c3Cl)c(CCC#N)cc2c2c1cc([C@H]1[C@H]3C[C@H](CN(c4cnn(C(F)(F)F)c4)C3)N1C(=O)C1CC1)n2[C@H]1[C@H]2CN[C@@H]1C2` (atropisomer, axis not shown; (Ra)) [Example 27, 3-((Ra)-1-((1R,4R,5S)-2-azabicyclo[2.1.1]hexan-5-yl)-2-((1S,5R,7R)-6-(cyclopropanecarbonyl)-3-(1-(trifluoromethyl)-1H-pyrazol-4-yl)-3,6-diazabicyclo[3.2.1]octan-7-yl)-7-(2,3-dichlorophenyl)-6-fluoro-4-methyl-1H-pyrrolo[3,2-c]quinolin-8-yl)propanenitrile], the “G12D_exchange” value on KRAS G12D was “†”. In series [1], this compound registered a Papp A→B at 120 min, 50 μM of at most 0.5 ×10⁻⁶ cm/s. Moreover, the “G12V_exchange” value on KRAS G12V is listed as “†”.
As to `Cc1nc2c(F)c(-c3cccc(Cl)c3Cl)c(CCC#N)cc2c2c1cc([C@H]1[C@H]3C[C@H](CN(c4ccc(OC(F)(F)F)cc4F)C3)N1C(=O)C1CC1)n2[C@H]1[C@H]2CN[C@@H]1C2` (atropisomer, axis not shown; (Ra)) [Example 28, 3-((Ra)-1-((1R,4R,5S)-2-azabicyclo[2.1.1]hexan-5-yl)-2-((1S,5R,7R)-6-(cyclopropanecarbonyl)-3-(2-fluoro-4-(trifluoromethoxy)phenyl)-3,6-diazabicyclo[3.2.1]octan-7-yl)-7-(2,3-dichlorophenyl)-6-fluoro-4-methyl-1H-pyrrolo[3,2-c]quinolin-8-yl)propanenitrile], the “G12D_exchange” value on KRAS G12D is recorded as “††”. In series [1], the Papp A→B at 120 min, 50 μM was at most 0.5 ×10⁻⁶ cm/s. For the same compound, the “G12V_exchange” value at KRAS G12V is given as “†”.
